This note sets out measurements from publication PMC6706138, “IL-6–HaloTag® enables live-cell plasma membrane staining, flow cytometry, functional expression, and de-orphaning of recombinant odorant receptors” (Journal of Biological Methods, 2017).

Structures are written as SMILES.

What all share (format): cell-based
One assay concerns the target T1, OR2M3 (Homo sapiens, UniProt Q8NG83).
T1 construct: full coding region amplified from human genomic DNA, N-terminal IL-6-HaloTag kept, transient in NxG 108CC15 cells with RTP1S, G-alpha-olf, G-gamma-13, GloSensor-22F
T1 sequence (Q8NG83 1-312): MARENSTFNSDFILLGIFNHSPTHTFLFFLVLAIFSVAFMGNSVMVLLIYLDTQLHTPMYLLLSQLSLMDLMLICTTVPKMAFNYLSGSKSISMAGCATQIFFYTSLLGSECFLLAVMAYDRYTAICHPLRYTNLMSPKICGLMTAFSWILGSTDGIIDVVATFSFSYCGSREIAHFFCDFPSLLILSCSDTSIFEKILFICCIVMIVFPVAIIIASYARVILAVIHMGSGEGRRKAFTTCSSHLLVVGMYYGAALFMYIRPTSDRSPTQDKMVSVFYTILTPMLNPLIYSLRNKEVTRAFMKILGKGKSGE
In words: GloSensor cAMP luminescence. Particulars: IL-6-HaloTag construct, NxG […]CC15 cells, pH […] DMSO, RTP1S/Gαolf/Gγ[…] co-transfected; agonist; read-out: IL-6-HaloTag®-receptor / EC50. The source says: GloSensor cAMP luminescence on OR2M3

The target in assay [1] is T2, OR1A1 (Homo sapiens, UniProt Q9P1Q5).
T2 construct: full coding region amplified from human genomic DNA, N-terminal IL-6-HaloTag kept, transient in NxG 108CC15 cells with RTP1S, G-alpha-olf, G-gamma-13, GloSensor-22F
T2 sequence (Q9P1Q5 1-309): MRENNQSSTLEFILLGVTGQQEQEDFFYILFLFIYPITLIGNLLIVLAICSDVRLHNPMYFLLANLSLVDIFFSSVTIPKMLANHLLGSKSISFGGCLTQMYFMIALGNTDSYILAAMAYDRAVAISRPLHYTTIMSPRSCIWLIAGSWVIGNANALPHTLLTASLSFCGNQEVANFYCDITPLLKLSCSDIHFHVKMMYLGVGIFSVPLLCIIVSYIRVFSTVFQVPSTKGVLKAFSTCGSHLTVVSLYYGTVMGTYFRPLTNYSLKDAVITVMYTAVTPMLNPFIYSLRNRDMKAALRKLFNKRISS
The assay can be described thus: GloSensor cAMP luminescence. Conditions: read-out: IL-6-HaloTag®-receptor / EC50. The source says:
GloSensor cAMP luminescence on OR1A1

The target of a further assay is T3, OR2W1 (Homo sapiens, UniProt Q9Y3N9).
T3 construct: full coding region amplified from human genomic DNA, N-terminal IL-6-HaloTag kept, transient in NxG 108CC15 cells with RTP1S, G-alpha-olf, G-gamma-13, GloSensor-22F
T3 sequence (Q9Y3N9 1-320): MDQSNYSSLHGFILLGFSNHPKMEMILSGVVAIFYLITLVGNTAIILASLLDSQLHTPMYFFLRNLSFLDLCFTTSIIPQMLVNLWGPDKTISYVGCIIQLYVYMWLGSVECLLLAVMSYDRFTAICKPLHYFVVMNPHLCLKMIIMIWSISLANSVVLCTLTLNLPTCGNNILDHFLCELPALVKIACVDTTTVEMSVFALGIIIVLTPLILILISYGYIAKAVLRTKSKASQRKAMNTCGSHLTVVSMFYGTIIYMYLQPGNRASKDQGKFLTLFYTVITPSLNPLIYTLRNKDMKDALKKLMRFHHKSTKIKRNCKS
In words: GloSensor cAMP luminescence. The source says:
GloSensor cAMP luminescence on OR2W1

Assay [2] addresses T2, OR1A1. The assay can be described thus: GloSensor cAMP luminescence, single-concentration screen. Particulars: IL-6-HaloTag construct, NxG […]CC15 cells, n = […] in duplicates, agonist.
Another assay has as its target T4, OR51E1 (Homo sapiens, UniProt Q8TCB6).
T4 construct: full coding region amplified from human genomic DNA, N-terminal IL-6-HaloTag kept, transient in NxG 108CC15 cells with RTP1S, G-alpha-olf, G-gamma-13, GloSensor-22F
T4 sequence (Q8TCB6 1-318): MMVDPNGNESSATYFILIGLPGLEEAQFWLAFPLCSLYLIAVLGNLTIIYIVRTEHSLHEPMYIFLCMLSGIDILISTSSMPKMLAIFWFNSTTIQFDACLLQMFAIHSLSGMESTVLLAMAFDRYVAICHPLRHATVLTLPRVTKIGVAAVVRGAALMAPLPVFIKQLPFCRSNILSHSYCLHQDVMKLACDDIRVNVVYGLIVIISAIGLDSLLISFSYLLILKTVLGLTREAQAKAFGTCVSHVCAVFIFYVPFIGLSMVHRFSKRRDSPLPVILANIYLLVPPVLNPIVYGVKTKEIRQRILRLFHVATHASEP
The assay can be described thus: GloSensor cAMP luminescence. Conditions: read-out: IL-6-HaloTag®-receptor / EC50. The source says: GloSensor cAMP luminescence on OR51E1

In another assay the target is T5, OR10J5 (Homo sapiens, UniProt Q8NHC4).
T5 construct: full coding region amplified from human genomic DNA, N-terminal IL-6-HaloTag kept, transient in NxG 108CC15 cells with RTP1S, G-alpha-olf, G-gamma-13, GloSensor-22F
T5 sequence (Q8NHC4 1-309): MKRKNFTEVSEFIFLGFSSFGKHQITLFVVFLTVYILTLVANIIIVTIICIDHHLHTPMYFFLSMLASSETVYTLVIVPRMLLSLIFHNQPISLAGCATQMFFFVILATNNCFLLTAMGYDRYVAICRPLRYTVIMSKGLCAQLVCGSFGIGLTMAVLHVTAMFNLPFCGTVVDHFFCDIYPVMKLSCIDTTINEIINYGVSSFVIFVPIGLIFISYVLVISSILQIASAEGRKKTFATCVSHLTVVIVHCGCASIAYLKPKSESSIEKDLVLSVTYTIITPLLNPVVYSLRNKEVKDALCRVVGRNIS
The assay can be described thus: GloSensor cAMP luminescence. Conditions: read-out: IL-6-HaloTag®-receptor / EC50. The source says: GloSensor cAMP luminescence on OR10J5

A further assay deals with T6, Olfr16 (Mus musculus, UniProt Q62007).
T6 construct: gene Or10j5; full coding region amplified from mouse genomic DNA, N-terminal IL-6-HaloTag kept, transient in NxG 108CC15 cells with RTP1S, G-alpha-olf, G-gamma-13, GloSensor-22F
T6 sequence (Q62007 1-309): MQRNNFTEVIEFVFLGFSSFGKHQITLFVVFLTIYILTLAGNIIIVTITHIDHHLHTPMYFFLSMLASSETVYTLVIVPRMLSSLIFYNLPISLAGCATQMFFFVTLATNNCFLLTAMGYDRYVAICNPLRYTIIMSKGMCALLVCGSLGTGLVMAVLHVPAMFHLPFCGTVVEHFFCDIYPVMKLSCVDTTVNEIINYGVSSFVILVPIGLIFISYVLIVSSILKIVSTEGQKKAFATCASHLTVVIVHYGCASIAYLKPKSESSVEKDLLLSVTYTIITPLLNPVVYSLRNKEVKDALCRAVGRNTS
The assay can be described thus: GloSensor cAMP luminescence. Conditions: read-out: IL-6-HaloTag®-receptor / EC50. The source says:
GloSensor cAMP luminescence on Olfr16

The next assay deals with T7, OR8D1 (Homo sapiens, UniProt Q8WZ84).
T7 construct: full coding region amplified from human genomic DNA, N-terminal IL-6-HaloTag kept, transient in NxG 108CC15 cells with RTP1S, G-alpha-olf, G-gamma-13, GloSensor-22F
T7 sequence (Q8WZ84 1-308): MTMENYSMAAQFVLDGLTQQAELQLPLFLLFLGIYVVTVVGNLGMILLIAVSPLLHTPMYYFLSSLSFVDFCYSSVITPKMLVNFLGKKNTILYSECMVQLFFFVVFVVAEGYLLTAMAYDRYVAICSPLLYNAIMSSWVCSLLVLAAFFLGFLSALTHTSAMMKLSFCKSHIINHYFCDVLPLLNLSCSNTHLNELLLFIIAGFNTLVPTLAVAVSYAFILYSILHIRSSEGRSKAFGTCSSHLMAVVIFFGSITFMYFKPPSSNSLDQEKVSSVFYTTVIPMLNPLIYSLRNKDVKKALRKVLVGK
The assay can be described thus: GloSensor cAMP luminescence. The source says: GloSensor cAMP luminescence on OR8D1

Consider `CCC(S)C(C)CO` (centres unmarked) [3-mercapto-2-methylpentan-1-ol], for which the EC50 at OR2M3 was 1.08 ± 1.16 µM.

Take `C=C(C)[C@@H]1CC=C(C)C(=O)C1` [(R)-(-)-carvone]: the EC50 on OR1A1 [1] is 7.66 ± 4.75 µM.

As for `C=CCOC(=O)Cc1ccccc1` [allyl phenyl acetate], the EC50 on OR2W1 was 27 ± 1.37 µM. In addition, the “GloSensor cAMP luminescence, single-concentration screen” value on OR1A1 [2] was “allyl phenyl acetate best activated OR1A1 and OR2W1”.

Consider `CCCC(=O)O` [butyric acid], for which the EC50 on OR51E1 turned out to be 95.6 ± 33.4 µM.

For `CC(C)(O)CCCC1=CCC(C=O)CC1` (centres unmarked) [lyral], the EC50 came to 16.3 ± 1.05 µM at OR10J5 and 34 ± 2.21 µM at Olfr16.

Consider `CC1=C(O)C(=O)OC1C` (centres unmarked) [sotolone], for which the EC50 at OR8D1 turned out to be 1.81 ± 0.19 µM.
